Laboratory results: patent US20240415801A1, “Methods and Compositions for Treating Fibroids” (Lundquist Institute for Biomedical Innovation at …, priority 2023, published 2024)

Key:
[1] = Tolerability and body weight of xenograft mice (Example 2); conditions: 5 mg/kg/three times per week
Experimental: 9-12-weeks-old female ovariectomized SCID/Beige mice (Charles River Laboratories) were implanted with pellets (Innovative Research of America) containing estradiol (0.05 mg/90 d release) and progesterone (25 mg/60 d release) as previously reported (4, 5). […] After two months of treatment animals were sacrificed, and blood was obtained by cardiac puncture.
Briefly, freshly obtained fibroids from hysterectomies was cut aseptically into small pieces (4-5-mm3 cubes) using a razor blade and weighed. Equal weights of the explants from the same patient were implanted in the flank of SCID mice. […] After two months of treatment animals were sacrificed, and blood was obtained by cardiac puncture.

fibroid xenografts [2] = test: Histology and immunohistochemistry of xenografts (Example 2); type: in vivo, SCID/Beige mice; conditions: 5 mg/kg, 8 weeks
Source text: After fixation with 4% paraformaldehyde and routine dehydration, a portion of xenograft samples were embedded in paraffin. To evaluate histologic characteristics, 5-μm-thick paraffin sections of xenografts were stained with hematoxylin and eosin (H-3502, Vector Laboratories, Inc.) and Masson's trichrome stain (HT15-1 KT, Sigma-Aldrich) according to the manufacturer's instructions.
For Immunohistochemistry, the xenografts were fixed with 4% paraformaldehyde in PBS, and subsequently transferred to PBS containing 30% sucrose (wt/vol) until equilibrated in cold (4° C.). After fixation, 5-μm-thick paraffin sections were treated three times with Histo-Clear™ (National Diagnostics, Atlanta, GA) for 5 min, and rehydrated by a sequential ethanol wash, and then incubated in target retrieval solution (Dako, Carpinteria, CA) in a microwave for 10 min in order to retrieve the antigens. For blocking, tissues were incubated for 10 minutes with 3% solution of H2O2 followed by incubation with PBS-5% normal goat serum-0.2% Triton X-100. Tissue sections were incubated with primary antibody rabbit anti-Ki67 (dilution 1:250, 27309-1-AP, Proteintech Group, Inc), rabbit anti-cleaved caspase-3 (dilution 1:50, #9664, Cell Signaling Technology), rabbit anti-CCND1 (dilution 1:50, #55506, Cell Signaling Technology) and mouse anti-E2F1 (dilution 1:50, sc-251, Santa Cruz Biotechnology, Inc.) overnight at 4° C. in a humidified chamber. The antigens were then visualized using biotinylated antibodies and streptavidin, conjugated with horseradish peroxidase. Control sections were incubated with the secondary antibody, with replacement of primary antibody with the dilution reagent (Dako). Diaminobenzidine (Dako) which served as the substrate. […] Immunostained sections were examined under a microscope (Olympus IX83; Olympus Surgical Technologies America) and five representative images of each slide were quantitatively analyzed with the use of Halo software (Indica Labs Inc.) and were averaged for comparative analysis between vehicle and […] treatment groups in a blinded fashion.

fibroid xenografts [3] = test: Total collagen enzyme-linked immunosorbent assay of xenografts (Example 1); type: in vivo, SCID/Beige mice; conditions: 20 mg/kg daily, 8 weeks, vs controls
Experimental: The total collagen content in xenografts was assessed in duplicate using the QuickZyme Total Collagen Assay Kit (QuickZyme Biosciences, Leiden, Netherlands), following the manufacturer's instructions as previously described. Absorbance readings were taken spectrophotometrically at a wavelength of 570 nm, and concentrations were determined by comparing sample optical density values to a standard curve. Total collagen levels were quantified as μg/ml of protein and reported as fold change relative to the vehicle group.

[4] = Safety test, plasma chemistry panel (Example 2); type: in vivo, SCID/Beige mice; conditions: 5 mg/kg i.p.
Experimental: In order to determine if Bay 11-7082 administration was safe, the plasma collected from the mice was tested after 8 weeks of treatment with vehicle or Bay 11-7082. The plasma (100 μL) was pipetted into the Comprehensive Diagnostic Profile Rotor (#500-1038, Abaxis, Union City, CA, USA) and the values of glucose, creatinine, BUN, phosphorus, sodium, albumin, alkaline phosphatase, serum glutamic pyruvic transaminase (SGPT; ALT), total protein, globulin, total bilirubin and amylase were analyzed using VetScan VS2 chemistry analyzer (Abaxis, Union City, CA, USA).

human fibroid explants = test: Fibroid explant culture, qRT-PCR; type: cell-based; conditions: 5 μM, 48 hours
Experimental: Quantitative RT-PCR was performed as previously described. Selected gene expression levels were assessed utilizing the Invitrogen StepOne System, with normalization against 18S. Triplicate reactions were conducted, and relative mRNA expression was calculated using the comparative cycle threshold method (2−ΔΔCt), with results presented as fold change relative to the control group. The primer sequences used are shown in the following Sequence Table:
Equal weights of fibroid explants, aseptically cut from the same patient, were plated in 6-well plates containing complete medium. They were then incubated for 48 hours with either vehicle or Bay (5 μM).

## Cc1ccc(S(=O)(=O)/C=C/C#N)cc1 [Bay 11-7082]
[1]
  effect on body weight: no significant effects
[1]; vehicle 26.16g±0.49
  body weight: 25.42 g
Fibroid xenografts [2]
  cell proliferation: nuclei staining for Ki67, CCND1 and E2F1: reduced number of nuclei staining
  staining for collagen (Masson's trichrome, blue stain): significant decrease
  staining of cleaved caspase 3 (apoptosis): no significant change
Fibroid xenografts [3]
  total collagen protein levels: significant decrease
[4]; 8 weeks
  adverse effects in blood plasma chemistry panel (glucose, kidney function, electrolytes, liver function, pancreatic amylase): no adverse effects
[4]; plasma after 8 weeks
  Albumin (mean ± SEM): 3.5 ± 0.14 g/dL
  Alkaline phosphatase (mean ± SEM): 91.9 ± 20.05 U/l
  Amylase (mean ± SEM): 643.0 ± 36.82 U/l
  BUN (mean ± SEM): 27.1 ± 5.75 mg/dL
  Creatinine (mean ± SEM): 0.4 ± 0.03 mg/dL
  Globulin (mean ± SEM): 1.1 ± 0.24 g/dL
  Glucose (mean ± SEM): 261.0 ± 14.63 mg/dL
  Phosphorus (mean ± SEM): 10.1 ± 0.53 mg/dL
  SGPT (ALT) (mean ± SEM): 54.5 ± 8.71 U/l
  Sodium (mean ± SEM): 155.3 ± 1.35 mEq/l
  Total bilirubin (mean ± SEM): 0.3 ± 0.04 mg/dL
  Total protein (mean ± SEM): 4.6 ± 0.16 g/dL
Human fibroid explants
  mRNA levels of TLR3, TLR6, MyD88, TNFα, ESR1, HTR1B, TNFRSF11A: without significant effects
  mRNA levels of VEGFC, TDO2, TGFB3, LOX, E2F1, PRL, PGR, CKS2, SPARC, COL3A1, FN1, CCND1, IL8, IL6, IL1β: significant inhibition
Human fibroid explants; fibroid explants
  expression of miR-29c and miR-200c: significant increase
